Patent US20200085839A1, “COMBINATION OF IMMUNOTHERAPEUTICS AND BISFLUOROALKYL-1,4-BENZODIAZEPINONE COMPOUNDS FOR TREATING LYMPHOMAS” (Ayala Pharmaceuticals Inc., priority 2018, published 2020)
Entries after “also recorded” stand apart in the source; their conditions may differ.

How the values were obtained:
Format in all cases: cell-based, human
[1] = system: U266 cells (MM cell line); test: Cell-bound BCMA by flow cytometry; conditions: 24 h; for cell-bound BCMA levels: FIG. 1; for effectiveness at increasing cell-bound BCMA compared with other GSIs: all doses above 0.3 nM
Experimental: FIG. 1. Levels of cell-bound BCMA en multiple myelma (MM) cells Incubated with γ-secretase inhibitors (GSIs). U266 cells (MM cell line) were incubated with 0.3 nM, 0.5 nM, 1 nM or 3 nM of GSI (Compound 1, Compound 22, LY3039478 or PF3084014) for 24 hours, and BCMA levels were measured by flow cytometry.
(§1) For detecting levels of soluble and cell-bound BCMA, U266 cells (MM cell line) were seeded at 1×10^5 cells/well in a total volume of 250 μl into a 96-well plate. The cells were cultured in RPMI medium supplemented with 10% FCS. GSIs (Compound 1, Compound 22, LY3039478 (Lilly), and PF3084014 (Pfizer)) were added to U266 cell cultures at a concentration of 0.3 nM, 0.5 nM, 1 nM and 3 nM for soluble BCMA and at a concentration of […]. Following 24 hours of incubation at 37° C., the cells were collected, and BCMA levels were evaluated in both the cells (cell-bound BCMA) and the cell media (soluble BCMA). Cells were stained with an anti-BCMA antibody (PE anti-human CD269 BCMA, Biolegend). Soluble BCMA levels were analyzed by ELISA (Human BCMA/TNFRSF17 DuoSet kit: R&D Systems).

[2] = system: U266 cells (MM cell line); test: Soluble BCMA in cell media by ELISA; conditions: for BCMA shedding: MM cells (U266), cell-bound and soluble BCMA
Experimental: FIG. 3. Levels of soluble BCMA In cell media after Incubation of multiple myeloma (MM) cells with γ-secretase inhibitors (GSIs). U266 cells (MM cell line) were incubated with 0.3 nM, 1 nM, 3 nM and 10 nM of GSI (Compound 1, Compound 22, LY3039478 or PF3084014) for 24 hours, and BCMA levels were measured by ELISA.
as §1

[3] = system: SP49, Toledo, RC, SUDHL-4 and SUDHL-6 lymphoma cell lines; test: Cell surface BCMA by FACS, five lymphoma cell lines; conditions: SUDHL-4, SUDHL-6, 10 nM or more, 24 h
Experimental: (§2) Cells were seeded at 1×10^4 cells/well in a total volume of 250 μl into a 96-well plate. The cells were cultured in RPMI supplemented with 10% FCS.
(§3) The tested compounds (Compound 1 and Compound 22) were added to the cell cultures at concentrations of: 0, 10, 1, 0.5, 0.1, 0.01, 0.001 μM ([…], 10 nM, 100 nM, 500 nM, 1000 nM, and 10000 nM). Following 24 hours of incubation at 37° C., the cells were collected and stained with anti-BCMA antibody and immediately analyzed by FACS.
The effect of γ-secretase inhibitors on cell surface BCMA levels in lymphoma cell lines was observed using flow cytometry (FACS analysis) (FIG. 4). Cells from five different lymphoma cell lines were treated for 24 hours with different concentrations of Compound 1 (FIG. 4A) or Compound 22 (FIG. 4B). Lymphoma cell lines treated were: SP49 (MCL with Notch4 GOF); Toledo (DLBCL); RC (Double Hit DLBCL—MYC, BCL2); SUDHL-4 (DLBCL); and SUDHL-6 (DLBCL). GSI concentrations were 0, 1 nM, 10 nM, 100 nM, 500 nM, 1000 nM, and 10000 nM.

[4] = system: B-ALL cell lines RSV411, REH, 018Z; test: Cell surface BCMA by FACS, B-ALL cell lines; conditions: up to 10 μM, 24 h
Experimental: as §2, §3
The effect of γ-secretase inhibitors on cell surface BCMA levels in Acute B-Cell Lymphoblastic Leukemia (B-ALL) cell lines was also observed using flow cytometry (FIG. 5). Cells from three different B-ALL cell lines were treated for 24 hours with different concentrations (0-10 μM) of GSIs (Compound 1 and Compound 22).

[5] = system: GFP^+ LPL line; test: Lysis of GFP expressing tumor cell lines by BCMA-CAR-T cells and/or Compound (1); conditions: BCMA-CAR-T cells and Compound (1) combined; 36 h
From the text: Multiple unique fully human scFvs to BCMA are generated, and CARs based on these scFvs are generated. Multiple scFvs are identified by screening a fully human scFv phage library (>6×10^10 scFvs) with BCMA-Fc fusion protein and then 3T3 cells expressing human BCMA. FACS analysis of phage antibody clones against BCMA-3T3 and parental 3T3 cell lines is used to confirm unique positive clones.
The generated scFvs are used to generate BCMA-targeted CARs. These BCMA-targeted CARs have similar structure, e.g., each has a transmembrane domain comprising a CD28 polypeptide, and an intracellular domain comprising a […] and a co-stimulatory signaling region that comprises a CD28 polypeptide. Each of these BCMA-targeted CARs are cloned into a retroviral vector. These viral vectors are then transduced into HEK 293galv9 viral packaging cells in order to generate a stable packaging line for generation of CAR+ T cells. […] The cell surface expression of BCMA-targeted CARs on human T cells is determined via binding A647 conjugated BCMA-Fc fusion protein. The cell surface expression of BCMA-targeted 28z CAR24 is assessed, and cell surface detection is validated by flow cytometry.
The ability of BCMA-CAR-T cells and Compound (1) to specifically lyse human myeloma cell line (HMCL) is tested. […] At time 0, the percent of GFP tumor line is determined.

SMILES	cell-bound BCMA levels [1]	effectiveness at increasing cell-bound BCMA compared with other GSIs [1]	BCMA shedding [2]	cell surface BCMA levels [3]	BCMA expression [4]	specific killing of GFP tumor cells [5]	potency in reducing soluble BCMA in cell media compared with other GSIs ([2]; U266, 24 h)
CN1C(=O)[C@@H](NC(=O)[C@H](CCC(F)(F)F)[C@H](CCC(F)(F)F)C(N)=O)N=C(c2ccccc2)c2ccccc21 [Compound 1, (2R,3S)—N-((3S)-1-methyl-2-oxo-5-phenyl-2,3-dihydro-1H-1,4-benzodiazepin-3-yl)-2,3-bis(3,3,3-trifluoropropyl)succinamide]	increased cell-bound BCMA levels	as effective as LY3039478 and more effective than PF3084014	inhibit BCMA shedding	elevated BCMA levels	did not affect BCMA expression	specifically killed more cells of the GFP^+ LPL line than either treatment alone	
Cc1cccc2c1NC(=O)[C@@H](NC(=O)[C@H](CCC(F)(F)F)[C@H](CCC(F)(F)F)C(N)=O)N=C2c1cccc(F)c1 [Compound (22), (2R,3S)—N-((3S)-5-(3-fluorophenyl)-9-methyl-2-oxo-2,3-dihydro-1H-1,4-benzodiazepin-3-yl)-2,3-bis(3,3,3-trifluoropropyl)succinamide]	increased cell-bound BCMA levels	as effective as LY3039478 and more effective than PF3084014	inhibit BCMA shedding	elevated BCMA levels	did not affect BCMA expression		more potent than Compound 1; also recorded: as potent as LY3039478; also recorded: more potent than PF3084014
